These are literature values, as cited in PubChem BioAssay AID1259410 (Chemical Carcinogenesis Research Information System (CCRIS), 2018).

For this series, the system named is rodent tumor promotion studies, tumor incidence. The series is described as follows: CCRIS tumor promotion studies.
Where [1] appears, read: Carcinogen: 7,12-DIMETHYLBENZ(A)ANTHRACENE, Doses [Carcinogen]: TOP, Route [Carcinogen]: DERMAL, Route [Promoter]: DERMAL, Species: MOUSE, Strain/Sex: MALE,FEMALE.
The mark [2] stands for this setting: Carcinogen: 7,12-DIMETHYLBENZ(A)ANTHRACENE, Doses [Carcinogen]: TOP, Route [Carcinogen]: DERMAL, Route [Promoter]: DERMAL, Species: MOUSE, Strain/Sex: FEMALE.

With `Cn1c(N)nc2ncc(-c3ccccc3)cc21`, the outcome was “small intestine: adenocarcinoma” (Carcinogen: 3,2'-DIMETHYL-4-AMINOBIPHENYL, 13394-86-0, Doses [Carcinogen]: 50 MG/KG BW ONCE/2 WK FOR FIRST 20 WK (STUDY DURATION: 60 WK), Doses [Promoter]: 0, 100, 300 PPM IN DIET FOR 40 WK BEGINNING 20 WK POST CARCINOGEN TREATMENT (STUDY DURATION: 60 WK), Doses [Promoter]: 0, 100, 300 PPM IN DIET FOR 40 WK BEGINNING 20 WK POST CARCINOGEN TREATMENT (STUDY DURATION: 60 WK), Route [Carcinogen]: SUBCUTANEOUS, Route [Promoter]: ORAL, Species: RAT, Strain/Sex: F344/MALE); “large intestine: adenomas and adenocarcinoma; only doses of 50 and 200 ppm were” (Carcinogen: AZOXYMETHANE [25843-45-2], Doses [Carcinogen]: 2 DOSES OF 15 MG/KG BW AT 1 WK INTERVALS STARTING AT 6 WKS OF AGE (STUDY DURATION: 36 WKS), Doses [Promoter]: 0, 0.001, 0.01, 0.1, 1, 10, 50, 200 PPM IN DIET FOR 34 WKS STARTING AFTER CARCINOGEN, Doses [Promoter]: 0, 0.001, 0.01, 0.1, 1, 10, 50, 200 PPM IN DIET FOR 34 WKS STARTING AFTER CARCINOGEN, Route [Carcinogen]: SUBCUTANEOUS, Route [Promoter]: ORAL (DIET), Species: RAT, Strain/Sex: F344/MALE); “large intestine: adenocarcinoma” (Carcinogen: DIETHYLNITROSAMINE, 55-18-5, N-METHYL-N-NITROSOUREA, 684-93-5, N-BUTYL-N-(4-HYDROXYBUTYL)NITROSAMINE, 3817-11-6, 1,, Carcinogen: DIETHYLNITROSAMINE, 55-18-5, N-METHYL-N-NITROSOUREA, 684-93-5, N-BUTYL-N-(4-HYDROXYBUTYL)NITROSAMINE, 3817-11-6, 1,, Doses [Carcinogen]: 100 MG/KG BW DEN ONCE, 20 MG/KG BW MNU 4 TIMES, 0.05% BBN IN DRINKING WATER FOR FIRST 2 WK OF STUDY, 40 MG/KG DMH 4 TIME, Doses [Carcinogen]: 100 MG/KG BW DEN ONCE, 20 MG/KG BW MNU 4 TIMES, 0.05% BBN IN DRINKING WATER FOR FIRST 2 WK OF STUDY, 40 MG/KG DMH 4 TIME, Doses [Promoter]: 0, 60 PPM IN DIET FOR 24 WK BEGINNING AT WK 5 OF STUDY (STUDY DURATION: 29 WK), Route [Carcinogen]: INTRAPERITONEAL, INTRAPERITONEAL, ORAL, SUBCUTANEOUS, ORAL, Route [Carcinogen]: INTRAPERITONEAL, INTRAPERITONEAL, ORAL, SUBCUTANEOUS, ORAL, Route [Promoter]: ORAL, Species: RAT, Strain/Sex: F344/MALE); “small intestine: adenocarcinoma; large intestine: adenocarcinoma” (Carcinogen: DIETHYLNITROSAMINE, 55-18-5, N-METHYL-N-NITROSOUREA, 684-93-5, N-BUTYL-N-(4-HYDROXYBUTYL)NITROSAMINE, 3817-11-6, 1,, Carcinogen: DIETHYLNITROSAMINE, 55-18-5, N-METHYL-N-NITROSOUREA, 684-93-5, N-BUTYL-N-(4-HYDROXYBUTYL)NITROSAMINE, 3817-11-6, 1,, Doses [Carcinogen]: 100 MG/KG BW DEN ONCE, 20 MG/KG BW MNU 4 TIMES, 0.05% BBN IN DRINKING WATER FOR FIRST 2 WK OF STUDY, 40 MG/KG DMH 4 TIME, Doses [Carcinogen]: 100 MG/KG BW DEN ONCE, 20 MG/KG BW MNU 4 TIMES, 0.05% BBN IN DRINKING WATER FOR FIRST 2 WK OF STUDY, 40 MG/KG DMH 4 TIME, Doses [Promoter]: 0, 300 PPM IN DIET FOR 24 WK BEGINNING AT WK 5 OF STUDY (STUDY DURATION: 29 WK), Route [Carcinogen]: INTRAPERITONEAL, INTRAPERITONEAL, ORAL, SUBCUTANEOUS, ORAL, Route [Carcinogen]: INTRAPERITONEAL, INTRAPERITONEAL, ORAL, SUBCUTANEOUS, ORAL, Route [Promoter]: ORAL, Species: RAT, Strain/Sex: F344/MALE).
Regarding `CC(=O)[O-].CC(=O)[O-].[OH-].[OH-].[OH-].[OH-].[Pb+2].[Pb+2].[Pb+2]`, the outcome is on record as “kidney: renal cell tumor” (Carcinogen: N-ETHYL-N-(2-HYDROXYETHYL)NITROSAMINE, Doses [Carcinogen]: 0.1% IN DRINKING WATER FOR 1 WK, Doses [Promoter]: 0.1% IN DIET FOR 35 WK, Route [Carcinogen]: ORAL, Route [Promoter]: ORAL, Species: RAT, Strain/Sex: F344/MALE) and “kidney: adenoma, adenocarcinoma” (Carcinogen: N-ETHYL-N-(2-HYDROXYETHYL)NITROSAMINE, Doses [Carcinogen]: 500 PPM IN DIET FOR TWO WK, Doses [Promoter]: 1000 PPM IN DIET FOR 20 WK, Route [Carcinogen]: ORAL, Route [Promoter]: ORAL, Species: RAT, Strain/Sex: WISTAR).
For `Clc1cc(Cl)c(-c2ccc(Cl)c(Cl)c2Cl)cc1Cl`, the outcome (Carcinogen: N-NITROSODIMETHYLAMINE, 62-75-9, Doses [Carcinogen]: 5 MG/KG IN SALINE ON POSTNATAL DAY 4, Doses [Promoter]: 0, 20 MG/KG IN OLIVE OIL ON POSTNATAL DAY 8 (STUDY DURATION: 16 WK), Route [Carcinogen]: INTRAPERITONEAL, Route [Promoter]: GAVAGE, Species: MOUSE, Strain/Sex: SWISS/MALE, FEMALE) is recorded as “lung: tumor”.
As to `CC(O)(CS(=O)(=O)c1ccc(F)cc1)C(=O)Nc1ccc(C#N)c(C(F)(F)F)c1` (stereo not given), the outcome (Carcinogen: 3,2'-DIMETHYL-4-AMINOBIPHENYL, 13394-86-0, Doses [Carcinogen]: 50 MG/KG BW ONCE/2 WK FOR FIRST 20 WK, Doses [Promoter]: 0, 10, 30 MG/KG BW BY GAVAGE 3X/WK FOR 40 WK BEGINNING 20 WK POST CARCINOGEN TREATMENT (STUDY DURATION: 60 WK), Doses [Promoter]: 0, 10, 30 MG/KG BW BY GAVAGE 3X/WK FOR 40 WK BEGINNING 20 WK POST CARCINOGEN TREATMENT (STUDY DURATION: 60 WK), Route [Carcinogen]: SUBCUTANEOUS, Route [Promoter]: ORAL, Species: RAT, Strain/Sex: F344/MALE) is recorded as “prostate (ventral): adenocarcinoma”.
Take `C=CCC1(CC=C)C(=O)NC(=O)NC1=O`: under “Carcinogen: N-NITROSODIETHYLAMINE, 55-18-5, Doses [Carcinogen]: 75 MG/KG BW IN 0.85% SALINE ONCE, Doses [Promoter]: 0, 440 PPM IN DIET FOR DURATION OF STUDY BEGINNING 2 WK POST CARCINOGEN DOSE (STUDY DURATION: 78 WK), Route [Carcinogen]: INTRAPERITONEAL, Route [Promoter]: ORAL, Species: RAT, Strain/Sex: F344/MALE”, the outcome is on record as “liver: adenoma, carcinoma”.
As for `CCCCCCCCCCCCCCCCCCCC`, the outcome under setting [1] was “integumentary system (skin)”.
In the case of `Cc1ccc(O)cc1C`, the outcome under setting [2] was “integumentary system (skin)”.
Turning to `C=C1/C(=C\C=C2/CCC[C@]3(C)[C@@H]([C@H](C)CCC(F)(F)C(C)(C)O)CC[C@@H]23)C[C@H](O)C[C@H]1O`, under “Carcinogen: 7,12-DIMETHYLBENZ[A]ANTHRACENE, 57-97-6, Doses [Carcinogen]: 50 NMOL IN 200 µL ACETONE 2/WK FOR 16 WK, Doses [Promoter]: 0, 0.05, 0.1 NMOL IN 200 µL ACETONE APPLIED 1 HR PRIOR TO CARCINOGEN DOSES 2/WK FOR 16 WK (STUDY DURATION: 16 WK), Doses [Promoter]: 0, 0.05, 0.1 NMOL IN 200 µL ACETONE APPLIED 1 HR PRIOR TO CARCINOGEN DOSES 2/WK FOR 16 WK (STUDY DURATION: 16 WK), Route [Carcinogen]: DERMAL, Route [Promoter]: DERMAL, Species: MOUSE, Strain/Sex: CD-1/FEMALE”, the outcome is “skin: tumors”.
`Oc1ccc(Cl)cc1Cl`: the outcome under setting [2] was “integumentary system (skin)”.
For the molecule `CCCCCCCCCCCC(=O)O`, the outcome under setting [1] was “integumentary system (skin)”.
Take `[Cl][Cd][Cl]`: the outcome runs as follows: (Carcinogen: 3,2'-DIMETHYL-4-AMINOBIPHENYL, 13394-86-0, Doses [Carcinogen]: 50 MG/KG BW IN 0.5 ML CORN OIL 1/2 WK FOR 20 WK, Doses [Promoter]: 0, 10 UMOL/KG BW IN SALINE ONCE AT WK 20 (STUDY DURATION: 60 WK), Route [Carcinogen]: SUBCUTANEOUS, Route [Promoter]: INTRAMUSCULAR, Species: RAT, Strain/Sex: F344/MALE) “ventral prostate: carcinoma”; (Carcinogen: 3,2'-DIMETHYL-4-AMINOBIPHENYL, 13394-86-0, Doses [Carcinogen]: 50 MG/KG BW IN 0.5 ML CORN OIL 1/2 WK FOR 20 WK, Doses [Promoter]: 0, 10 UMOL/KG BW IN SALINE ONCE AT WK 20 AND 0, 5 UMOL/KG BW ONCE AT WK 40 (STUDY DURATION: 60 WK), Doses [Promoter]: 0, 10 UMOL/KG BW IN SALINE ONCE AT WK 20 AND 0, 5 UMOL/KG BW ONCE AT WK 40 (STUDY DURATION: 60 WK), Route [Carcinogen]: SUBCUTANEOUS, Route [Promoter]: INTRAMUSCULAR, Species: RAT, Strain/Sex: F344/MALE) “ventral prostate: carcinoma”.
`CC(C)CCC[C@@H](C)[C@H]1CC[C@H]2[C@@H]3CC=C4C[C@@H](O)CC[C@]4(C)[C@H]3CC[C@]12C`: the outcome (Carcinogen: N-NITROSOBIS(2-OXOPROPYL)AMINE, 60599-38-4, Doses [Carcinogen]: 70 MG/KG ONCE, Doses [Promoter]: 0, 0.5% IN DIET BEGINNING 2 WK POST CARCINOGEN DOSE AND CONTINUING FOR 16 WK (STUDY DURATION: 18 WK), Route [Carcinogen]: SUBCUTANEOUS, Route [Promoter]: ORAL, Species: HAMSTER, Strain/Sex: SYRIAN/FEMALE) is given as “pancreas: adenocarcinoma”.
For the molecule `C/C(=C\CO)CCC[C@H](C)CCC[C@H](C)CCCC(C)C`, the outcome (Carcinogen: 7,12-DIMETHYLBENZ[A]ANTHRACENE, 57-97-6, Doses [Carcinogen]: 100 UG ONCE, Doses [Promoter]: 0, 100 MG 2 D/WK FOR 16 WK BEGINNING 1 WK POST CARCINOGEN DOSE (STUDY DURATION: 41 WK), Route [Carcinogen]: DERMAL, Route [Promoter]: DERMAL, Species: MOUSE, Strain/Sex: ICR/FEMALE) is “skin: tumor”.
In the case of `CCCCCCC(=O)C/C=C/CCCCCCCC(=O)OC`, the outcome reads like this: (Carcinogen: 4-NITROQUINOLINE-1-OXIDE, Doses [Carcinogen]: IG, Doses [Promoter]: IN DIET, Route [Carcinogen]: GAVAGE, Route [Promoter]: ORAL, Species: MOUSE, Strain/Sex: MALE,FEMALE) “forestomach”; under setting [1], “integumentary system (skin)”.
